Here are results for 14 molecules from patent publication US20170334899A1, “AMINO-SUBSTITUTED ISOTHIAZOLES” (Bayer Pharma Aktiengesellschaft, priority 2014, published 2017).

Several values for one entry are separate records, joined by “and”; a condition that tells them apart may be missing. Equal values may be shown once.

The assay has as its target T1, human kinase Mps-1 (Homo sapiens, UniProt P33981).
T1 construct: N-terminally GST-tagged human full length recombinant Mps-1 kinase; GST (N); purchased Invitrogen, Karslruhe, Germany PV4071
T1 sequence (P33981 1-857): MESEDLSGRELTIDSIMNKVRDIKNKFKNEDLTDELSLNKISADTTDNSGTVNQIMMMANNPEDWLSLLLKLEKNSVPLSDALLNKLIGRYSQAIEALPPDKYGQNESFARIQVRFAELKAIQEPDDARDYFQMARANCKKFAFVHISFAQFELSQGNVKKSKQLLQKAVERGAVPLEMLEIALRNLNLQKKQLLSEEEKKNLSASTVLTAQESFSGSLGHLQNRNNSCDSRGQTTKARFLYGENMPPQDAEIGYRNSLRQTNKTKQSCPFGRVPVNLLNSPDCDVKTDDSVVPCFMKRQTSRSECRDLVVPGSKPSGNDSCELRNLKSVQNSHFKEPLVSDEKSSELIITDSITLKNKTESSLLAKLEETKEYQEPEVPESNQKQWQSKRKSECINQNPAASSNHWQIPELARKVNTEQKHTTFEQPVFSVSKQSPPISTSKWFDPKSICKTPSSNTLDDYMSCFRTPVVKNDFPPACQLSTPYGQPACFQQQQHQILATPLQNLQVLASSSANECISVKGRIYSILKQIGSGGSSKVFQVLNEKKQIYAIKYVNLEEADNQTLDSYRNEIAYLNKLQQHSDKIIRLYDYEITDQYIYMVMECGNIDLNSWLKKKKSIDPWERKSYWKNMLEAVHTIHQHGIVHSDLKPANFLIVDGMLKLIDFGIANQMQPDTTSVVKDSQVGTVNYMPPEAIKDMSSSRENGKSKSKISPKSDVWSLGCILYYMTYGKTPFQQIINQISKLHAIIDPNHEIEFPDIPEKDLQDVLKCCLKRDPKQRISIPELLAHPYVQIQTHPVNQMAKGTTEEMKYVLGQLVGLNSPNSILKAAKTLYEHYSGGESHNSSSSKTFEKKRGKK
The assay can be described thus: Mps-1 kinase assay (TR-FRET). In kind it is biochemical. As to conditions: Mps-1 TR-FRET kinase assay; avg; read-out: Mps1 avg (IC50 [mol/l]). A digest of the protocol: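 Inhibition normalised between uninhibited reaction (0%) and enzyme-free wells (100%), using the blank-corrected TR-FRET 665/620 nm ratio after EDTA stop. Reaction: ~0.5 nM GST-Mps-1 full length, 10 μM ATP, 1 μM biotin-peptide, 60 min at 22 °C, after 15 min compound pre-binding, pH 7.7.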
A general note: TR-FRET usually uses a lanthanide donor and a delayed reading to cut background.

Regarding `Cc1nsc(Nc2cnc3ccccc3n2)c1C(=O)Nc1ccc(Oc2ccc(SC(F)(F)F)cc2)nc1` [Example 233, 3-methyl-5-(quinoxalin-2-ylamino)-N-(6-{4-[(trifluoromethyl)sulfanyl]phenoxy}pyridin-3-yl)-1,2-thiazole-4-carboxamide], the IC50 was > 20 µM.

Regarding `Cc1nsc(Nc2cncc(C(F)(F)F)n2)c1C(=O)Nc1ccc(C(=O)NCCN2CCCC(F)(F)C2)cc1` [Example 214, N-(4-{[2-(3,3-difluoropiperidin-1-yl)ethyl]carbamoyl}phenyl)-3-methyl-5-{[6-(trifluoromethyl)pyrazin-2-yl]amino}-1,2-thiazole-4-carboxamide], the IC50 is > 20 µM.

As to `Cc1nsc(Nc2ccc(C#N)cn2)c1C(=O)Nc1cccc(C(=O)OC(C)(C)C)c1` [Example 240, tert-butyl 3-[({5-[(5-cyanopyridin-2-yl)amino]-3-methyl-1,2-thiazol-4-yl}carbonyl)amino]benzoate], the IC50 is > 20 µM.

`CNS(=O)(=O)c1ccc(NC(=O)c2c(C)nsc2Nc2cncc(C(F)(F)F)n2)cc1` [Example 211, 3-methyl-N-[4-(methylsulfamoyl)phenyl]-5-{[6-(trifluoromethyl)pyrazin-2-yl]amino}-1,2-thiazole-4-carboxamide]: the IC50 is > 20 µM and 19 µM.

On to `Cc1nsc(Nc2cnc3ccccc3n2)c1C(=O)Nc1ccccc1S(C)(=O)=O` [Example 188, 3-methyl-N-[2-(methylsulfonyl)phenyl]-5-(quinoxalin-2-ylamino)-1,2-thiazole-4-carboxamide], for which the IC50 was > 20 µM.

As for `Cc1nsc(Nc2cnc3ccccc3n2)c1C(=O)Nc1ccc(C(=O)OC(C)(C)C)cc1` [Example 181, tert-butyl 4-({[3-methyl-5-(quinoxalin-2-ylamino)-1,2-thiazol-4-yl]carbonyl}amino)benzoate], the IC50 was > 20 µM.

For the molecule `Cc1nsc(Nc2cnc(C(F)(F)F)cn2)c1C(=O)Nc1ccc(OCCN)nc1` [Example 197, N-[6-(2-aminoethoxy)pyridin-3-yl]-3-methyl-5-{[5-(trifluoromethyl)pyrazin-2-yl]amino}-1,2-thiazole-4-carboxamide], the IC50 was > 20 µM.

`CNS(=O)(=O)c1ccc(NC(=O)c2c(C)nsc2Nc2cnc(C(F)(F)F)cn2)cc1` [Example 212, 3-methyl-N-[4-(methylsulfamoyl)phenyl]-5-{[5-(trifluoromethyl)pyrazin-2-yl]amino}-1,2-thiazole-4-carboxamide]: the IC50 is > 20 µM.

`Cc1nsc(Nc2cnc3ccccc3n2)c1C(=O)Nc1ccc(C(=O)O)cc1` [Example 187, 4-({[3-methyl-5-(quinoxalin-2-ylamino)-1,2-thiazol-4-yl]carbonyl}amino)benzoic acid]: the IC50 was found to be 5.4 µM.

For `Cc1nsc(Nc2cnc3ccccc3n2)c1C(=O)Nc1ccc(NC2CCN(C(=O)OC(C)(C)C)CC2)nc1` [Example 234, tert-butyl 4-{[5-({[3-methyl-5-(quinoxalin-2-ylamino)-1,2-thiazol-4-yl]carbonyl}amino)pyridin-2-yl]amino}piperidine-1-carboxylate], the IC50 was > 20 µM.

On to `Cc1nsc(Nc2cncc(C(F)(F)F)n2)c1C(=O)Nc1ccc(OC2CCN(CCF)CC2)c(F)c1` [Example 223, N-(3-fluoro-4-{[1-(2-fluoroethyl)piperidin-4-yl]oxy}phenyl)-3-methyl-5-{[6-(trifluoromethyl)pyrazin-2-yl]amino}-1,2-thiazole-4-carboxamide], for which the IC50 is > 20 µM.

Consider `Cc1nsc(Nc2cnc3ccccc3n2)c1C(=O)Nc1ccc(NC(=O)C(C)(C)C)cc1` [Example 185, N-{4-[(2,2-dimethylpropanoyl)amino]phenyl}-3-methyl-5-(quinoxalin-2-ylamino)-1,2-thiazole-4-carboxamide], for which the IC50 was > 20 µM.

On to `Cc1nsc(Nc2cncc(C(F)(F)F)n2)c1C(=O)Nc1ccc(OC2CCN(C(C)C)CC2)nc1` [Example 218, N-{6-[(1-isopropylpiperidin-4-yl)oxy]pyridin-3-yl}-3-methyl-5-{[6-(trifluoromethyl)pyrazin-2-yl]amino}-1,2-thiazole-4-carboxamide], for which the IC50 was > 20 µM.

With `Cc1nsc(Nc2cncc(C(F)(F)F)n2)c1C(=O)Nc1ccc(F)c(C(N)=O)c1` [Example 204, N-(3-carbamoyl-4-fluorophenyl)-3-methyl-5-{[6-(trifluoromethyl)pyrazin-2-yl]amino}-1,2-thiazole-4-carboxamide], the IC50 was determined as 17 µM.
